Measurements from US11225505B2, “Antimicrobial polymyxin derivative compounds” (MONASH UNIVERSITY, priority 2015, dated 2022).
≈ marks a conversion by molar mass, not a printed value. Where a SMILES comes first, the peptide text is derived from it. Bridges are numbered along the chain shown (N, C = ends). [ ]: non-standard residue; d: D form. The star is where a group is joined. X1 = O=C(c1ncc(Cl)cc1Cl)*; Dab = NCC[C@H](N)C(=O)O; Abu = CC[C@H](N)C(=O)O; Dap = NC[C@H](N)C(=O)O

How the values were obtained:
[1] = system: Acinetobacter baumannii FADDI-AB030; test: microbe, parasite or virus in culture; format: cell-based; conditions: FADDI-AB030
How it was run: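 Lipopeptide TFA salts tested against the multidrug-resistant clinical isolate by CLSI (M100-S24) broth microdilution in cation-adjusted Mueller-Hinton broth, with polymyxin B sulphate as control; MIC read.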

mouse kidney = conditions: in vivo, 180 mg/kg
Description: Lesions were rated as follows: mild acute tubular damage with tubular dilation, prominent nuclei and a few pale tubular casts (Grade 1); severe acute tubular damage with necrosis of tubular epithelial cells and numerous tubular casts (Grade 2); acute cortical necrosis/infarction of tubules and glomeruli with or without papillary necrosis (Grade 3). The grades were given the following scores: grade 1=1, grade 2=4, and grade 3=10. The percentage of area of the kidney slice showing histological damage was scored as follows: <1%=0, 1 to <5%=1, 5 to <10%=2, 10 to <20%=3, 20 to <30%=4, 30 to <40%=5, and >40%=6. The overall kidney histological score was calculated as the product of the percentage score and grade score. These scores were then expressed as a semiquantitative score (Kidney Histological Score) on a scale of 0 to +5 for renal histological changes. […]
Lung infection was produced as follows. […] Bacterial burdens in lungs were determined at 2 h after inoculation (untreated controls) and 24 h later (untreated controls and compound-treated mice). […] The bacterial colonies on the agar plate were counted and the log10 CFU/lung in each mouse was calculated (FIG. 1).
The right kidney from each of the treated animals was removed and assessed for histological damage as described for Example 3. […]

## CC[C@@H]1NC(=O)[C@@H](CC(C)C)NC(=O)[C@H](CCN)NC(=O)[C@@H](NC(=O)[C@H](CN)NC(=O)[C@@H](NC(=O)[C@H](CCN)NC(=O)c2ncc(Cl)cc2Cl)[C@@H](C)O)CCNC(=O)[C@H]([C@@H](C)O)NC(=O)[C@H](CCN)NC(=O)[C@H](CCN)NC1=O [Compound 1] (X1-[Dab]T[Dap][Dab][Dab][dL][Abu][Dab][Dab]T; lactam 4-C)
[1]
  Minimum inhibitory concentration: 1 mg/L (≈ 0.861 µM)
Mouse kidney
  histological damage to the kidneys (in words): no histological damage
